The numbers were not newly measured in patent US20130149346A1, “DABIGATRAN ETEXILATE-CONTAINING PHARMACEUTICAL COMPOSITION” (ratiopharm GmbH Graf-Arco-Strasse 3, priority 2010, published 2013), which cites them from elsewhere.

The conditions of the data set: in the acidic environment.

Take `CCCCCCOC(=O)NC(=N)c1ccc(NCc2nc3cc(C(=O)N(CCC(=O)OCC)c4ccccn4)ccc3n2C)cc1` [dabigatran etexilate, 3-[(2-{[4-(hexyloxycarbonylamino-imino-methyl)-phenylamino]-methyl}-1-methyl-1H-benzimidazole-5-carbonyl)-pyridine-2-yl-amino]-propionic acid ethyl ester]: the pH-dependent solubility result is on record as “greatly increased”.
